In patent publication US7759337B2, “Phthalazine compounds and methods of use” (Amgen Inc., priority 2005, dated 2010):
pIC50: −log10 of the molar value.

tested on: production of TNF by monocytes activated with bacterial lipopolysaccharide (LPS); experiment: Lipopolysaccharide-activated monocyte TNF production assay; assay type: cell-based; details: Homo sapiens; whole blood monocyte assay (LPS induced TNF release)
Procedure, shortened: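 Adherent human PBMC-derived monocytes preincubated 60 min with nine two-fold compound dilutions, then stimulated with E. coli K532 LPS (30 ng/mL in the added medium) for 4 h at 37 °C. Supernatant TNF measured by sandwich ELISA; IC50 is the compound concentration halving TNF production, from second-order polynomial fits.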

Q: Cc1ccc([N+](=O)[O-])cc1-c1ccc2c(N3CCOCC3)nncc2c1 [Example 137, 6-(2-methyl-5-nitrophenyl)-1-morpholin-4-ylphthalazine] was tested. Which pIC50 did it give?
A: ≥ 5.30

Q: With CCOC(=O)c1ccc(C)c(-c2ccc3c(NC(C)C)nncc3c2)c1 [Example 138, ethyl 3-[1-(isopropylamino)phthalazin-6-yl]-4-methylbenzoate] as the molecule, how does the pIC50 read?
A: ≥ 5.30

Q: How did the pIC50 turn out when Cc1ccc(C(=O)NC2CC2)cc1-c1ccc2c(N3CCN(C(=O)NCc4ccc(F)cc4)CC3)nncc2c1 [Example 139, 4-(6-{5-[(cyclopropylamino)carbonyl]-2-methylphenyl}phthalazin-1-yl)-N-(4-fluorobenzyl)piperazine-1-carboxamide] was run?
A: ≥ 5.30

Q: With Cc1ccc(C(=O)NC2CC2)cc1-c1ccc2c(N3CCN[C@H](C)C3)nncc2c1 [Example 140, N-cyclopropyl-4-methyl-3-{1-[(3R)-3-methylpiperazin-1-yl]phthalazin-6-yl}benzamide] as the molecule, how does the pIC50 read?
A: ≥ 5.30

Q: Cc1ccc(C(=O)NC2CC2)cc1-c1ccc2c(N)nncc2c1 [Example 141, 3-(1-aminophthalazin-6-yl)-N-cyclopropyl-4-methylbenzamide] was tested. Which pIC50 did it give?
A: ≥ 5.30

Q: With Cc1ccc(C(=O)NC2CC2)cc1-c1ccc2c(N3C[C@@H](C)O[C@@H](C)C3)nncc2c1 [Example 142, N-cyclopropyl-3-{1-[(2R,6S)-2,6-dimethylmorpholin-4-yl]phthalazin-6-yl}-4-methylbenzamide] as the molecule, how does the pIC50 read?
A: ≥ 5.30

Q: Cc1ccc(C(N)=O)cc1-c1ccc2c(N3CCNC[C@H]3C)nncc2c1 [Example 143, 4-methyl-3-{1-[(2R)-2-methylpiperazin-1-yl]phthalazin-6-yl}benzamide] was tested. Which pIC50 did it give?
A: ≥ 5.30

Q: How did the pIC50 turn out when Cc1ccc(C(=O)NC2CC2)cc1-c1ccc2c(N3C[C@@H]4C[C@H]3CN4C(C)C)nncc2c1 [Example 144, N-cyclopropyl-3-{1-[(1S,4S)-5-isopropyl-2,5-diazabicyclo[2.2.1]hept-2-yl]phthalazin-6-yl}-4-methylbenzamide] was run?
A: ≥ 5.30

Q: Cc1ccc(C(N)=O)cc1-c1ccc2c(Cl)nncc2c1 [Example 145, 3-(1-chlorophthalazin-6-yl)-4-methylbenzamide] was tested. Which pIC50 did it give?
A: ≥ 5.30

Q: Cc1ccc(C(N)=O)cc1-c1ccc2c(N3CCNC[C@@H]3C)nncc2c1 [Example 146, 4-methyl-3-{1-[(2S)-2-methylpiperazin-1-yl]phthalazin-6-yl}benzamide] was tested. Which pIC50 did it give?
A: ≥ 5.30

Q: With Cc1ccc(C(=O)NC2CC2)cc1-c1ccc2c(N3C[C@@H](C)NC[C@@H]3C)nncc2c1 [Example 147, N-cyclopropyl-3-{1-[(2S,5R)-2,5-dimethylpiperazin-1-yl]phthalazin-6-yl}-4-methylbenzamide] as the molecule, how does the pIC50 read?
A: ≥ 5.30

Q: How did the pIC50 turn out when Cc1ccc(C(=O)NC2CC2)cc1-c1ccc2c(N3C[C@@H](C)N[C@@H](C)C3)nncc2c1 [Example 148, N-cyclopropyl-3-{1-[(3R,5S)-3,5-dimethylpiperazin-1-yl]phthalazin-6-yl}-4-methylbenzamide] was run?
A: ≥ 5.30

Q: How did the pIC50 turn out when Cc1ccc(C(=O)NC2CC2)cc1-c1ccc2c(N3CCN[C@@H](C)C3)nncc2c1 [Example 149, N-cyclopropyl-4-methyl-3-{1-[(3S)-3-methylpiperazin-1-yl]phthalazin-6-yl}benzamide] was run?
A: ≥ 5.30

Q: Cc1ccc(C(=O)NC2CC2)cc1-c1ccc2c(C3CCN(C)CC3)nncc2c1 [Example 150, N-cyclopropyl-4-methyl-3-[1-(1-methylpiperidin-4-yl)phthalazin-6-yl]benzamide] was tested. Which pIC50 did it give?
A: ≥ 5.30

Q: Cc1ccc(C(=O)NC2CC2)cc1-c1ccc2c(N3CCC[C@H]3CO)nncc2c1 [Example 151, N-cyclopropyl-3-{1-[(2S)-2-(hydroxymethyl)pyrrolidin-1-yl]phthalazin-6-yl}-4-methylbenzamide] was tested. Which pIC50 did it give?
A: ≥ 5.30

Q: Cc1ccc(C(=O)NC2CC2)cc1-c1ccc2c(N3CCC(C)(O)CC3)nncc2c1 [Example 152, N-cyclopropyl-3-[1-(4-hydroxy-4-methylpiperidin-1-yl)phthalazin-6-yl]-4-methylbenzamide] was tested. Which pIC50 did it give?
A: ≥ 5.30

Q: How did the pIC50 turn out when Cc1ccc(C(=O)NC2CC2)cc1-c1ccc2c(C3=CCN(C(=O)OC(C)(C)C)CC3)nncc2c1 [Example 153, tert-butyl 4-(6-{5-[(cyclopropylamino)carbonyl]-2-methylphenyl}phthalazin-1-yl)-3,6-dihydropyridine-1(2H)-carboxylate] was run?
A: ≥ 5.30

Q: Cc1ccc(C(=O)NC2CC2)cc1-c1ccc2c(N3CCC[C@@H]4CCCC[C@@H]43)nncc2c1 [Example 154, 3-{1-[(4aS,8aS)-octahydroquinolin-1(2H)-yl]phthalazin-6-yl}-N-cyclopropyl-4-methylbenzamide] was tested. Which pIC50 did it give?
A: ≥ 5.30

Q: Cc1ccc(C(N)=O)cc1-c1ccc2c(OC(C)C)nncc2c1 [Example 155, 3-(1-isopropoxyphthalazin-6-yl)-4-methylbenzamide] was tested. Which pIC50 did it give?
A: ≥ 5.30

Q: Cc1ccc(C(N)=O)cc1-c1ccc2c(-c3ccccc3Cl)nncc2c1 [Example 156, 3-[1-(2-chlorophenyl)phthalazin-6-yl]-4-methylbenzamide] was tested. Which pIC50 did it give?
A: ≥ 5.30

Q: How did the pIC50 turn out when CC(=O)N1CCN(c2nncc3cc(-c4cc(C(=O)NC5CC5)ccc4C)ccc23)CC1 [Example 157, 3-[1-(4-acetylpiperazin-1-yl)phthalazin-6-yl]-N-cyclopropyl-4-methylbenzamide] was run?
A: ≥ 5.30

Q: Cc1ccc(C(=O)NC2CC2)cc1-c1ccc2c(NC3CCCCC3)nncc2c1 [Example 158, 3-[1-(cyclohexylamino)phthalazin-6-yl]-N-cyclopropyl-4-methylbenzamide] was tested. Which pIC50 did it give?
A: ≥ 5.30

Q: With Cc1ccc(C(=O)NC2CC2)cc1-c1ccc2c(N3CCCCC3)nncc2c1 [Example 159, N-cyclopropyl-4-methyl-3-(1-piperidin-1-ylphthalazin-6-yl)benzamide] as the molecule, how does the pIC50 read?
A: ≥ 5.30

Q: Cc1ccc(C(=O)NC2CC2)cc1-c1ccc2c(N3CCO[C@@H](CO)C3)nncc2c1 [Example 160, N-cyclopropyl-3-{1-[(2R)-2-(hydroxymethyl)morpholin-4-yl]phthalazin-6-yl}-4-methylbenzamide] was tested. Which pIC50 did it give?
A: ≥ 5.30

Q: Cc1ccc(C(=O)NC2CC2)cc1-c1ccc2c(N3CCN(c4c(C)cccc4C)CC3)nncc2c1 [Example 162, N-cyclopropyl-3-{1-[4-(2,6-dimethylphenyl)piperazin-1-yl]phthalazin-6-yl}-4-methylbenzamide] was tested. Which pIC50 did it give?
A: ≥ 5.30

Q: Cc1ccc(C(=O)NC2CC2)cc1-c1ccc2c(N3CCNC(=O)C3)nncc2c1 [Example 163, N-cyclopropyl-4-methyl-3-[1-(3-oxopiperazin-1-yl)phthalazin-6-yl]benzamide] was tested. Which pIC50 did it give?
A: ≥ 5.30

Q: How did the pIC50 turn out when Cc1ccc(C(=O)NC2CC2)cc1-c1ccc2c(Cl)nncc2c1 [Example 164, 3-(1-chlorophthalazin-6-yl)-N-cyclopropyl-4-methylbenzamide] was run?
A: ≥ 5.30

Q: With Cc1ccc(C(=O)NC2CC2)cc1-c1ccc2c(N3CCNCC3)nncc2c1 [Example 165, N-cyclopropyl-4-methyl-3-(1-piperazin-1-ylphthalazin-6-yl)benzamide] as the molecule, how does the pIC50 read?
A: ≥ 5.30

Q: How did the pIC50 turn out when Cc1ccc(C(=O)NC2CC2)cc1-c1ccc2c(N3CC[C@@H](O)C3)nncc2c1 [Example 166, N-cyclopropyl-3-{1-[(3R)-3-hydroxypyrrolidin-1-yl]phthalazin-6-yl}-4-methylbenzamide] was run?
A: ≥ 5.30

Q: Cc1ccc(C(=O)NC2CC2)cc1-c1ccc2c(N3CCC4(CC3)OCCO4)nncc2c1 [Example 167, N-cyclopropyl-3-[1-(1,4-dioxa-8-azaspiro[4.5]dec-8-yl)phthalazin-6-yl]-4-methylbenzamide] was tested. Which pIC50 did it give?
A: ≥ 5.30

Q: How did the pIC50 turn out when Cc1ccc(C(=O)NC2CC2)cc1-c1ccc2c(OC(C)C)nncc2c1 [Example 168, N-cyclopropyl-3-(1-isopropoxyphthalazin-6-yl)-4-methylbenzamide] was run?
A: ≥ 5.30

Q: With COc1nncc2cc(-c3cc(C(=O)NC4CC4)ccc3C)ccc12 [Example 169, N-cyclopropyl-3-(1-methoxyphthalazin-6-yl)-4-methylbenzamide] as the molecule, how does the pIC50 read?
A: ≥ 5.30

Q: With Cc1ccc(C(=O)NC2CC2)cc1-c1ccc2c(-c3ccccc3Cl)nncc2c1 [Example 170, 3-[1-(2-chlorophenyl)phthalazin-6-yl]-N-cyclopropyl-4-methylbenzamide] as the molecule, how does the pIC50 read?
A: ≥ 5.30

Q: Cc1ccc(C(N)=O)cc1-c1ccc2c(N3C[C@@H](C)OC[C@H]3C)nncc2c1 [Example 171, 3-{1-[(2R,5R)-2,5-dimethylmorpholin-4-yl]phthalazin-6-yl}-4-methylbenzamide] was tested. Which pIC50 did it give?
A: ≥ 5.30

Q: With Cc1ccc(C(=O)NC2CC2)cc1-c1ccc2c(NC(C)C)nncc2c1 [Example 172, N-cyclopropyl-3-[1-(isopropylamino)phthalazin-6-yl]-4-methylbenzamide] as the molecule, how does the pIC50 read?
A: ≥ 5.30

Q: Cc1ccc(C(=O)NC2CC2)cc1-c1ccc2c(N3C[C@H](C)OC[C@H]3C)nncc2c1 [Example 173, N-cyclopropyl-3-{1-[(2S,5R)-2,5-dimethylmorpholin-4-yl]phthalazin-6-yl}-4-methylbenzamide] was tested. Which pIC50 did it give?
A: ≥ 5.30

Q: How did the pIC50 turn out when Cc1ccc(C(=O)NC2CC2)cc1-c1ccc2c(N3C[C@@H](C)OC[C@H]3C)nncc2c1 [Example 174, N-cyclopropyl-3-{1-[(2R,5R)-2,5-dimethylmorpholin-4-yl]phthalazin-6-yl}-4-methylbenzamide] was run?
A: ≥ 5.30

Q: How did the pIC50 turn out when Cc1ccc(C(N)=O)cc1-c1ccc2c(N3CCOCC3)nncc2c1 [Example 175, 4-methyl-3-(1-morpholin-4-ylphthalazin-6-yl)benzamide] was run?
A: ≥ 5.30

Q: How did the pIC50 turn out when Cc1ccc(C(N)=O)cc1-c1ccc2c(-c3ccccc3C)nncc2c1 [Example 176, 4-methyl-3-[1-(2-methylphenyl)phthalazin-6-yl]benzamide] was run?
A: ≥ 5.30

Q: With NC(=O)c1ccc(F)c(-c2ccc3c(N4CCOCC4)nncc3c2)c1 [Example 177, 4-fluoro-3-(1-morpholin-4-ylphthalazin-6-yl)benzamide] as the molecule, how does the pIC50 read?
A: ≥ 5.30

Q: With Cc1ccc(C(=O)NC2CC2)cc1-c1ccc2c(N3CCOC[C@@H]3C)nncc2c1 [Example 178, N-cyclopropyl-4-methyl-3-{1-[(3S)-3-methylmorpholin-4-yl]phthalazin-6-yl}benzamide] as the molecule, how does the pIC50 read?
A: ≥ 5.30

Q: With Cc1ccc(C(N)=O)cc1-c1ccc2c(NC(C)C)nncc2c1 [Example 179, 3-[1-(isopropylamino)phthalazin-6-yl]-4-methylbenzamide] as the molecule, how does the pIC50 read?
A: ≥ 5.30
